This is an account of results in US20240002391A1, “4-ALKOXYPYRROLO[2,1-F][1,2,4]TRIAZINES AND PREPARATION AND USES THEREOF” (BioSplice Therapeutics, Inc., priority 2022, published 2024).

The structures appear in SMILES notation.

The assay addresses recombinant DYRK1A kinase (Homo sapiens (Human), UniProt Q13627). Briefly: DYRK1A kinase assay (Ser/Thr 18 peptide Z-lyte FRET). The settings on record: DYRK1A kinase activity, Z-lyte Ser/Thr 18 peptide, 15 μM ATP; method text calls the value IC50; read-out: EC50 (the source's name). In kind it is biochemical. Put shortly: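 Recombinant enzyme (0.25 μg/mL final) was incubated with 15 μM ATP, 4 μM Ser/Thr 18 peptide and compound (11-point 1:3 series from 10 μM) for 1 h at room temperature, in duplicate. Development reagent was added for 1 h, and coumarin/fluorescein emission ratio gave % phosphorylation; IC50 by non-linear regression.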
As for `C[C@]1(O)C[C@H](Nc2nc(OC3COC3)c3c(-c4ccc5nccnc5c4)ccn3n2)C1` [Compound 391, cis-1-Methyl-3-((4-(oxetan-3-yloxy)-5-(quinoxalin-6-yl)pyrrolo[2,1-f][1,2,4]triazin-2-yl)amino)cyclobutan-1-ol], the IC50 was found to be 7.2 nM. Under `COc1nc(N[C@@H]2CCN(C3COC3)CC2(F)F)nn2ccc(-c3ccc4ncnn4c3)c12` [Compound 578, (R)-5-([1,2,4]Triazolo[1,5-a]pyridin-6-yl)-N-(3,3-difluoro-1-(oxetan-3-yl)piperidin-4-yl)-4-methoxypyrrolo[2,1-f][1,2,4]triazin-2-amine] stands 8 nM; under `COc1nc(N[C@H]2CCN(C)C[C@H]2F)nn2ccc(-c3cnc4nccn4c3)c12` [Compound 268, N-((3R,4S)-3-Fluoro-1-methylpiperidin-4-yl)-5-(imidazo[1,2-a]pyrimidin-6-yl)-4-methoxypyrrolo[2,1-f][1,2,4]triazin-2-amine], 5 nM.

`COc1nc(N[C@H]2CCN(C(C)=O)C[C@H]2F)nn2ccc(-c3ccc4nnn(CCF)c4c3)c12` [Compound 664, 1-((3R,4S)-3-Fluoro-4-((5-(1-(2-fluoroethyl)-1H-benzo[d][1,2,3]triazol-6-yl)-4-methoxypyrrolo[2,1-f][1,2,4]triazin-2-yl)amino)piperidin-1-yl)ethan-1-one]: the IC50 came out at 1.6 nM.

As for `COc1nc(N[C@H]2CC[C@](C)(O)CC2)nn2ccc(-c3ccc4nc(C)n(CC(F)F)c4c3)c12` [Compound 112, trans-4-((5-(1-(2,2-Difluoroethyl)-2-methyl-1H-benzo[d]imidazol-6-yl)-4-methoxypyrrolo[2,1-f][1,2,4]triazin-2-yl)amino)-1-methylcyclohexan-1-ol], the IC50 is 2.6 nM. Under `CNC(=O)c1cnn2ccc(-c3ccn4nc(NC5CCC6(CC5)COC6)nc(OC)c34)cc12` [Compound 102, 5-(2-((2-Oxaspiro[3.5]nonan-7-yl)amino)-4-methoxypyrrolo[2,1-f][1,2,4]triazin-5-yl)-N-methylpyrazolo[1,5-a]pyridine-3-carboxamide] stands 1.9 nM; under `COc1nc(N[C@@H]2CN(C(C)=O)C[C@@H]2F)nn2ccc(-c3cc(F)c4nc(C)n(CC(F)F)c4c3)c12` [Compound 513, 1-((3R,4S)-3-((5-(1-(2,2-Difluoroethyl)-4-fluoro-2-methyl-1H-benzo[d]imidazol-6-yl)-4-methoxypyrrolo[2,1-f][1,2,4]triazin-2-yl)amino)-4-fluoropyrrolidin-1-yl)ethan-1-one], 2.8 nM; under `COc1nc(N[C@@H]2CCN(C(C)=O)CC2(F)F)nn2ccc(-c3ccc4nnn(C(C)C)c4c3)c12` [Compound 691, (R)-1-(3,3-Difluoro-4-((5-(1-isopropyl-1H-benzo[d][1,2,3]triazol-6-yl)-4-methoxypyrrolo[2,1-f][1,2,4]triazin-2-yl)amino)piperidin-1-yl)ethan-1-one], 1.4 nM. Under `COc1nc(N[C@H]2CCN(C)CC2(F)F)nn2ccc(-c3ccc4nc(C)n(CC(F)F)c4c3)c12` [Compound 139, (S)—N-(3,3-Difluoro-1-methylpiperidin-4-yl)-5-(1-(2,2-difluoroethyl)-2-methyl-1H-benzo[d]imidazol-6-yl)-4-methoxypyrrolo[2,1-f][1,2,4]triazin-2-amine] stands 6.9 nM. The same measure for `COc1nc(NC2CC3(CCN(C(C)=O)CC3)C2)nn2ccc(-c3ccn4nccc4c3)c12` [Compound 39, 1-(2-((4-Methoxy-5-(pyrazolo[1,5-a]pyridin-5-yl)pyrrolo[2,1-f][1,2,4]triazin-2-yl)amino)-7-azaspiro[3.5]nonan-7-yl)ethan-1-one]: 2.9 nM. Consider `COc1nc(N[C@@H]2CCC(=O)N(C)C2)nn2ccc(-c3ccc4nccnc4c3)c12` [Compound 1097, (R)-5-((4-Methoxy-5-(quinoxalin-6-yl)pyrrolo[2,1-f][1,2,4]triazin-2-yl)amino)-1-methylpiperidin-2-one], for which the IC50 was determined as 2.7 nM. Under `COc1nc(N[C@@H]2CCN(C3COC3)CC2(F)F)nn2ccc(-c3ccc4nc(C)n(CC(F)F)c4c3)c12` [Compound 142, (R)—N-(3,3-Difluoro-1-(oxetan-3-yl)piperidin-4-yl)-5-(1-(2,2-difluoroethyl)-2-methyl-1H-benzo[d]imidazol-6-yl)-4-methoxypyrrolo[2,1-f][1,2,4]triazin-2-amine] stands 2.7 nM; under `COc1nc(NC2CCC3(CC2)COC3)nn2ccc(-c3ccc4ncccc4c3)c12` [Compound 326, 4-Methoxy-5-(quinolin-6-yl)-N-(2-oxaspiro[3.5]nonan-7-yl)pyrrolo[2,1-f][1,2,4]triazin-2-amine], 7.3 nM; under `COc1nc(N[C@H]2CC[C@H](NC(C)=O)CC2)nn2ccc(-c3ccn4nccc4c3)c12` [Compound 18, N-(trans-4-((4-Methoxy-5-(pyrazolo[1,5-a]pyridin-5-yl)pyrrolo[2,1-f][1,2,4]triazin-2-yl)amino)cyclohexyl)acetamide], 7.4 nM. Turning to `CN1CC[C@H](Nc2nc(OC3COC3)c3c(-c4ccc5ncccc5c4)ccn3n2)[C@H](F)C1` [Compound 1090, N-((3R,4S)-3-Fluoro-1-methylpiperidin-4-yl)-4-(oxetan-3-yloxy)-5-(quinolin-6-yl)pyrrolo[2,1-f][1,2,4]triazin-2-amine], the IC50 worked out at 5.7 nM. Consider `COc1nc(N[C@H]2C[C@@](C)(NC(C)=O)C2)nn2ccc(-c3ccc4nc(C)n(CC(F)F)c4c3)c12` [Compound 108, N-(cis-3-((5-(1-(2,2-Difluoroethyl)-2-methyl-1H-benzo[d]imidazol-6-yl)-4-methoxypyrrolo[2,1-f][1,2,4]triazin-2-yl)amino)-1-methylcyclobutyl)acetamide], for which the IC50 amounted to 3.3 nM. Under `COc1nc(N[C@H]2CCN(C3COC3)C[C@H]2F)nn2cc(F)c(-c3ccc4ncccc4c3)c12` [Compound 1059, 6-Fluoro-N-((3R,4S)-3-fluoro-1-(oxetan-3-yl)piperidin-4-yl)-4-methoxy-5-(quinolin-6-yl)pyrrolo[2,1-f][1,2,4]triazin-2-amine] stands 1.9 nM; under `COc1nc(N[C@H]2CCN(C3COC3)C[C@H]2F)nn2ccc(-c3ccc4nnn(C(C)C)c4c3)c12` [Compound 688, N-((3R,4S)-3-fluoro-1-(oxetan-3-yl)piperidin-4-yl)-5-(1-isopropyl-1H-benzo[d][1,2,3]triazol-6-yl)-4-methoxypyrrolo[2,1-f][1,2,4]triazin-2-amine], 2.3 nM; under `COc1nc(N[C@H]2CCN(C)C[C@H]2F)nn2cc(F)c(-c3ccc4ncccc4c3)c12` [Compound 1057, 6-Fluoro-N-((3R,4S)-3-fluoro-1-methylpiperidin-4-yl)-4-methoxy-5-(quinolin-6-yl)pyrrolo[2,1-f][1,2,4]triazin-2-amine], 1.7 nM. The same measure for `COc1nc(N[C@H]2C[C@](C)(C(=O)N(C)C)C2)nn2ccc(-c3ccc4ncccc4c3)c12` [Compound 290, trans-3-((4-Methoxy-5-(quinolin-6-yl)pyrrolo[2,1-f][1,2,4]triazin-2-yl)amino)-N,N,1-trimethylcyclobutane-1-carboxamide]: 1.8 nM; for `Oc1nc(N[C@@H]2CN(C3COC3)C[C@@H]2F)nn2ccc(-c3cnc4nccn4c3)c12` [Compound 265, 2-(((3R,4S)-4-fluoro-1-(oxetan-3-yl)pyrrolidin-3-yl)amino)-5-(imidazo[1,2-a]pyrimidin-6-yl)pyrrolo[2,1-f][1,2,4]triazin-4-ol]: 58.9 nM.
